# Results taken from patent publication US12655116B2, “Substituted isophthalic acid diamides” (Bayer Aktiengesellschaft, priority 2020, dated 2026).
# Key:
# PHBPU [1] = experiment: Pre-emergence herbicidal action against PHBPU; type: in vivo, Pharbitis purpurea; conditions: dosage 80 g/ha
# Procedure, shortened: (§1)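 Greenhouse pots of sandy loam held seeds covered with soil, onto which the compound was applied before emergence. An aqueous suspension or emulsion of WP or EC was used at 600 to 800 l/ha with 0.2% wetting agent. Percent damage was judged visually at 3 weeks.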
# ABUTH [2] = experiment: Post-emergence herbicidal action against ABUTH; type: in vivo, Abutilon theophrasti; conditions: visual assessment about 3 weeks after treatment vs untreated controls
# Procedure, shortened: (§2)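 A WP or EC formulation diluted in water with 0.2% wetting agent was sprayed at 600 to 800 l/ha onto one-leaf-stage plants grown in sandy loam. About 3 weeks later, action was rated visually in percent, 100% being dead plants.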
# SETVI [3] = experiment: Post-emergence herbicidal action against SETVI; type: in vivo, Setaria viridis
# Procedure, shortened: as §2
# AMARE [4] = experiment: Post-emergence herbicidal action against AMARE; type: in vivo, Amaranthus retroflexus; conditions: 20 g/ha, visual assessment about 3 weeks after treatment, 100% = plants have died, 0% = like control plants
# Procedure, shortened: as §2
# PHBPU [5] = experiment: Post-emergence herbicidal action against PHBPU; type: in vivo, Pharbitis purpurea; conditions: dosage 20 g/ha
# Procedure, shortened: as §2
# DIGSA [6] = experiment: Pre-emergence herbicidal action against DIGSA; type: in vivo, Digitaria sanguinalis
# Procedure, shortened: as §1
# ABUTH [7] = experiment: Pre-emergence herbicidal action against ABUTH; type: in vivo, Abutilon theophrasti
# Procedure, shortened: as §1
# VIOTR [8] = experiment: Post-emergence herbicidal action against VIOTR; type: in vivo, Viola tricolor
# Procedure, shortened: as §2
# POLCO = experiment: Pre-emergence herbicidal action against POLCO; type: in vivo, Polygonum convolvulus; conditions: dosage 80 g/ha
# Procedure, shortened: as §1
# VERPE [9] = experiment: Post-emergence herbicidal action against VERPE; type: in vivo, Veronica persica
# Procedure, shortened: as §2
# SETVI [10] = experiment: Pre-emergence herbicidal action against SETVI; type: in vivo, Setaria viridis
# Procedure, shortened: as §1
# ECHCG [11] = experiment: Pre-emergence herbicidal action against ECHCG; type: in vivo, Echinochloa crus-galli
# Procedure, shortened: as §1
# AMARE [12] = experiment: Pre-emergence herbicidal action against AMARE; type: in vivo, Amaranthus retroflexus
# Procedure, shortened: as §1
# VERPE [13] = experiment: Pre-emergence herbicidal action against VERPE; type: in vivo, Veronica persica
# Procedure, shortened: as §1
# VIOTR [14] = experiment: Pre-emergence herbicidal action against VIOTR; type: in vivo, Viola tricolor
# Procedure, shortened: as §1
# MATIN [15] = experiment: Post-emergence herbicidal action against MATIN; type: in vivo, Matricaria inodora
# Procedure, shortened: as §2
# ECHCG [16] = experiment: Post-emergence herbicidal action against ECHCG; type: in vivo, Echinochloa crus-galli
# Procedure, shortened: as §2
# DIGSA [17] = experiment: Post-emergence herbicidal action against DIGSA; type: in vivo, Digitaria sanguinalis
# Procedure, shortened: as §2
# MATIN [18] = experiment: Pre-emergence herbicidal action against MATIN; type: in vivo, Matricaria inodora
# Procedure, shortened: as §1
# AVEFA = experiment: Pre-emergence herbicidal action against AVEFA; type: in vivo, Avena fatua; conditions: 80 g/ha, pre-emergence
# Procedure, shortened: as §1
# ALOMY = experiment: Pre-emergence herbicidal action against ALOMY; type: in vivo, Alopecurus myosuroides; conditions: 80 g/ha, pre-emergence, scored visually after 3 weeks vs untreated controls (100% = plants have died, 0% = like control plants)
# Procedure, shortened: as §1
# [19] = 80 g/ha, scored visually after 3 weeks vs untreated controls (100% = plants have died, 0% = like control plants)
# [20] = dosage 20 g/ha, scored visually after 3 weeks vs untreated controls, 100% = plants have died, 0% = like control plants
# [21] = 20 g/ha, scored visually after 3 weeks vs untreated controls, 100% = plants have died, 0% = like control plants
# [22] = Setaria viridis, 504 h, dosage 20 g/ha
# [23] = Tripleurospermum inodorum, 504 h, dosage 20 g/ha
structure (smiles),measurement,setting,value
CCc1c(C(=O)Nc2nnnn2CC)ccc(C(F)F)c1C(=O)NC [Example 2-277],Pre-emergence action against PHBPU in %,PHBPU [1],80%
same,Post-emergence action against ABUTH in %,ABUTH [2]; dosage 5 g/ha,80%
same,Post-emergence action against ABUTH in %,ABUTH [2]; dosage 20 g/ha,90%
same,Post-emergence action against SETVI in %,SETVI [3]; dosage 5 g/ha,90%
same,Post-emergence action against SETVI in %,SETVI [3]; dosage 20 g/ha,90%
same,Post-emergence action at 20 g/ha against AMARE in %,AMARE [4],90%
same,Post-emergence action against PHBPU in %,PHBPU [5],90%
same,Pre-emergence action against DIGSA in %,DIGSA [6]; dosage 20 g/ha,90%
same,Pre-emergence action against DIGSA in %,DIGSA [6]; dosage 80 g/ha,100%
same,Pre-emergence action against ABUTH (herbicidal activity),ABUTH [7]; [19],100%
same,Pre-emergence action against ABUTH (herbicidal activity in percent),ABUTH [7]; [20],90%
same,Post-emergence action against VIOTR in %,VIOTR [8]; 5 g/ha,90%
same,Post-emergence action against VIOTR in %,VIOTR [8]; 20 g/ha,90%
same,Pre-emergence action against POLCO in %,POLCO,90%
same,Post-emergence action against VERPE in %,VERPE [9]; 5 g/ha,80%
same,Post-emergence action against VERPE in %,VERPE [9]; 20 g/ha,90%
same,Pre-emergence action against SETVI in %,SETVI [10]; dosage 80 g/ha,80%
same,Pre-emergence action against ECHCG in %,ECHCG [11]; 80 g/ha,90%
same,Pre-emergence action against AMARE in %,AMARE [12]; [21],100%
same,Pre-emergence action against AMARE in %,AMARE [12]; [19],100%
same,Pre-emergence action against VERPE in %,VERPE [13]; dosage 80 g/ha,100%
same,Pre-emergence action against VIOTR in %,VIOTR [14]; dosage 20 g/ha,100%
same,Pre-emergence action against VIOTR in %,VIOTR [14]; dosage 80 g/ha,100%
same,Post-emergence action against MATIN in %,MATIN [15]; dosage 5 g/ha,90%
same,Post-emergence action against MATIN in %,MATIN [15]; dosage 20 g/ha,90%
same,Post-emergence action against ECHCG in %,ECHCG [16]; dosage 20 g/ha,100%
same,Post-emergence action against DIGSA in %,DIGSA [17]; 5 g/ha,90%
same,Post-emergence action against DIGSA,DIGSA [17]; 20 g/ha,90%
same,Pre-emergence action against MATIN in %,MATIN [18]; dosage 20 g/ha,90%
same,Pre-emergence action against MATIN in %,MATIN [18]; dosage 80 g/ha,100%
CCNC(=O)c1c(C(F)F)ccc(C(=O)Nc2nnnn2CC)c1OC [Example 2-73],Pre-emergence action against PHBPU in %,PHBPU [1],80%
same,Pre-emergence action against AVEFA in %,AVEFA,80%
same,Post-emergence action against ABUTH in %,ABUTH [2]; dosage 5 g/ha,80%
same,Post-emergence action against ABUTH in %,ABUTH [2]; dosage 20 g/ha,80%
same,Post-emergence action against SETVI in %,SETVI [3]; dosage 20 g/ha,100%
same,Post-emergence action against PHBPU in %,PHBPU [5],80%
same,Pre-emergence action against DIGSA in %,DIGSA [6]; dosage 20 g/ha,90%
same,Pre-emergence action against DIGSA in %,DIGSA [6]; dosage 80 g/ha,100%
same,Pre-emergence action against ABUTH (herbicidal activity),ABUTH [7]; [19],100%
same,Pre-emergence action against ABUTH (herbicidal activity in percent),ABUTH [7]; [20],100%
same,Post-emergence action against VIOTR in %,VIOTR [8]; 20 g/ha,100%
same,Pre-emergence action against POLCO in %,POLCO,80%
same,Post-emergence action against VERPE in %,VERPE [9]; 5 g/ha,80%
same,Post-emergence action against VERPE in %,VERPE [9]; 20 g/ha,90%
same,Pre-emergence action against SETVI in %,SETVI [10]; dosage 80 g/ha,100%
same,Pre-emergence action against ECHCG in %,ECHCG [11]; 80 g/ha,100%
same,Pre-emergence action against AMARE in %,AMARE [12]; [21],100%
same,Pre-emergence action against AMARE in %,AMARE [12]; [19],100%
same,Pre-emergence action against VERPE in %,VERPE [13]; dosage 20 g/ha,90%
same,Pre-emergence action against VERPE in %,VERPE [13]; dosage 80 g/ha,90%
same,Pre-emergence action against VIOTR in %,VIOTR [14]; dosage 20 g/ha,90%
same,Pre-emergence action against VIOTR in %,VIOTR [14]; dosage 80 g/ha,100%
same,Pre-emergence action against ALOMY (herbicidal activity),ALOMY,100%
same,Post-emergence action against MATIN in %,MATIN [15]; dosage 5 g/ha,80%
same,Post-emergence action against MATIN in %,MATIN [15]; dosage 20 g/ha,80%
same,Post-emergence action against ECHCG in %,ECHCG [16]; dosage 5 g/ha,80%
same,Post-emergence action against ECHCG in %,ECHCG [16]; dosage 20 g/ha,80%
same,Pre-emergence action against MATIN in %,MATIN [18]; dosage 20 g/ha,100%
same,Pre-emergence action against MATIN in %,MATIN [18]; dosage 80 g/ha,100%
CCNC(=O)c1c(C(F)F)ccc(C(=O)Nc2nnnn2C)c1C1CC1 [Example 1-305],pest or weed control at 80 g/ha,"PHBPU [1]; Ipomoea purpurea, 504 h",90%
same,pest or weed control at 5 g/ha,"ABUTH [2]; Abutilon theophrasti, 504 h, dosage 5 g/ha",90%
same,pest or weed control at 20 g/ha,"ABUTH [2]; Abutilon theophrasti, 504 h, dosage 20 g/ha",90%
same,pest or weed control at 20 g/ha,SETVI [3]; [22],90%
same,pest or weed control at 20 g/ha,"AMARE [4]; Amaranthus retroflexus, 504 h",90%
same,pest or weed control at 20 g/ha,"PHBPU [5]; Ipomoea purpurea, 504 h",90%
same,pest or weed control at 20 g/ha,"DIGSA [6]; Digitaria sanguinalis, 504 h, dosage 20 g/ha",100%
same,pest or weed control at 80 g/ha,"DIGSA [6]; Digitaria sanguinalis, 504 h, dosage 80 g/ha",100%
same,pest or weed control at 80 g/ha,"ABUTH [7]; Abutilon theophrasti, 504 h, 80 g/ha, scored visually after 3 weeks vs untreated controls (100% = plants have died, 0% = like control plants)",100%
same,pest or weed control at 20 g/ha,"ABUTH [7]; Abutilon theophrasti, 504 h, dosage 20 g/ha, scored visually after 3 weeks vs untreated controls, 100% = plants have died, 0% = like control plants, read-out: Pre-emergence action against ABUTH (herbicidal activity in percent)",100%
same,pest or weed control at 5 g/ha,"VIOTR [8]; Viola tricolor, 504 h, 5 g/ha",90%
same,pest or weed control at 20 g/ha,"VIOTR [8]; Viola tricolor, 504 h, 20 g/ha",90%
same,pest or weed control at 80 g/ha,"POLCO; Fallopia convolvulus, 504 h",80%
same,pest or weed control at 20 g/ha,"VERPE [9]; Veronica persica, 504 h, 20 g/ha",80%
same,pest or weed control at 20 g/ha,SETVI [10]; [22],80%
same,pest or weed control at 80 g/ha,"SETVI [10]; Setaria viridis, 504 h, dosage 80 g/ha",100%
same,pest or weed control at 20 g/ha,"ECHCG [11]; Echinochloa crus-galli, 504 h, 20 g/ha",80%
same,pest or weed control at 80 g/ha,"ECHCG [11]; Echinochloa crus-galli, 504 h, 80 g/ha",100%
same,pest or weed control at 20 g/ha,"AMARE [12]; Amaranthus retroflexus, 504 h, 20 g/ha, scored visually after 3 weeks vs untreated controls, 100% = plants have died, 0% = like control plants",100%
same,pest or weed control at 80 g/ha,"AMARE [12]; Amaranthus retroflexus, 504 h, 80 g/ha, scored visually after 3 weeks vs untreated controls, 100% = plants have died, 0% = like control plants",100%
same,pest or weed control at 80 g/ha,"VERPE [13]; Veronica persica, 504 h, dosage 80 g/ha",100%
same,pest or weed control at 20 g/ha,"VIOTR [14]; Viola tricolor, 504 h, dosage 20 g/ha",100%
same,pest or weed control at 80 g/ha,"VIOTR [14]; Viola tricolor, 504 h, dosage 80 g/ha",100%
same,pest or weed control at 5 g/ha,"MATIN [15]; Tripleurospermum inodorum, 504 h, dosage 5 g/ha",90%
same,pest or weed control at 20 g/ha,MATIN [15]; [23],90%
same,pest or weed control at 20 g/ha,"ECHCG [16]; Echinochloa crus-galli, 504 h, dosage 20 g/ha",90%
same,pest or weed control at 20 g/ha,"DIGSA [17]; Digitaria sanguinalis, 504 h, 20 g/ha",80%
same,pest or weed control at 20 g/ha,MATIN [18]; [23],100%
same,pest or weed control at 80 g/ha,"MATIN [18]; Tripleurospermum inodorum, 504 h, dosage 80 g/ha",100%
